Values of other authors, collected in PubChem BioAssay AID1259409 (Chemical Carcinogenesis Research Information System (CCRIS), 2018).

Test system: rodent chemically induced tumor inhibition, incidence and multiplicity
Assay: CCRIS tumor inhibitor studies
Conditions: Carcinogen: 2,2'-DIHYDROXY-DI-N-PROPYLNITROSAMINE, 53609-64-6, 13147-25-6, Carcinogen: 2,2'-DIHYDROXY-DI-N-PROPYLNITROSAMINE, 53609-64-6, 13147-25-6, Dose [Inhibitor]: 0, Route [Inhibitor]: ORAL, Species: RAT, Promoter: NONE USED; for tumour outcome (control, treated, inhibition, significance): N-ETHYL-N-HYDROXYETHYLNITROSAMINE, Dose [Carcinogen]: 1000 MG/KG BW DHPN TWICE

## O=P(O)(O)OC1C(OP(=O)(O)O)C(OP(=O)(O)O)C(OP(=O)(O)O)C(OP(=O)(O)O)C1OP(=O)(O)O (stereo not given)
N-ETHYL-N-HYDROXYETHYL- NITROSAMINE, 3,2'-DIMETHYL-4-, N-ETHYL-N-HYDROXYETHYL- NITROSAMINE, 3,2'-DIMETHYL-4-, 2% IN DIET BEGINNING 1 WK POST LAST CARCINOGEN DOSE AND CONTINUING FOR 32 WK (STUDY DURATION: 36 WK), Strain/Sex: F344/MALE, Target Tissue: Type of Lesion: URINARY BLADDER: PAPILLOMA, Dose [Carcinogen]: 1000 MG/KG/ IP DHPN 2X, 1500 MG/KG/ GAV EHEN 2X AND 75 MG/KG SC DMAB 3X GIVEN OVER THE INITIAL 3 WK PERIOD AT 3-4 D INTE
  outcome: 0/14 (0%), 6/12 (50%), p<0.01n
3,2'-DIMETHYL-1,4-, 3,2'-DIMETHYL-1,4-, 1% IN DIET FOR 4 WK BEGINNING 1 D PRIOR TO FIRST CARCINOGEN DOSE (STUDY DURATION: 36 WK), Strain/Sex: F344/MALE, Target Tissue: Type of Lesion: KIDNEY: ADENOMA, 1500 MG/KG EHEN TWICE, 75 MG/KG BW DMAB 3 TIMES, SEQUENTIALLY OVER 3 WK
  tumour outcome (control, treated, inhibition, significance): 6/10 (60%), 6/14 (43%), 28%, not significant
3,2'-DIMETHYL-1,4-, 3,2'-DIMETHYL-1,4-, 1% IN DIET FOR 4 WK BEGINNING 1 D PRIOR TO FIRST CARCINOGEN DOSE (STUDY DURATION: 36 WK), Strain/Sex: F344/MALE, Target Tissue: Type of Lesion: LUNG: ADENOMA, 1500 MG/KG EHEN TWICE, 75 MG/KG BW DMAB 3 TIMES, SEQUENTIALLY OVER 3 WK
  tumour outcome (control, treated, inhibition, significance): 5/10 (50%), 9/14 (64%), -28%, not significant
3,2'-DIMETHYL-4-AMINO-, 3,2'-DIMETHYL-4-AMINO-, 2% IN DIET FOR 32 WK BEGINNING 1 WK POST CARCINOGEN TREATMENT (STUDY DURATION: 36 WK0, Strain/Sex: F344/MALE, Target Tissue: Type of Lesion: KIDNEY: NEPHROBLASTOMA, 1500 MG/KG BW EHEN TWICE, 75 MG/KG BW 3 TIMES ADMINISTERED OVER FIRST 3 WK
  tumour outcome (control, treated, inhibition, significance): 2/14 (14%), 3/12 (25%), -79%, not significant
3,2'-DIMETHYL-4-AMINO-, 3,2'-DIMETHYL-4-AMINO-, 2% IN DIET FOR 32 WK BEGINNING 1 WK POST CARCINOGEN TREATMENT (STUDY DURATION: 36 WK), Strain/Sex: F244/MALE, Target Tissue: Type of Lesion: THYROID GLAND: CARCINOMA, 1500 MG/KG BW EHEN TWICE, 75 MG/KG BW 3 TIMES ADMINISTERED OVER FIRST 3 WK
  tumour outcome (control, treated, inhibition, significance): 3/14 (21%), 2/12 (17%), 19%, not significant
3,2'-DIMETHYL-4-AMINO-, 3,2'-DIMETHYL-4-AMINO-, 2% IN DIET FOR 32 WK BEGINNING 1 WK POST CARCINOGEN TREATMENT (STUDY DURATION: 36 WK), Strain/Sex: F344/MALE, Target Tissue: Type of Lesion: KIDNEY: ADENOMA, 1500 MG/KG BW EHEN TWICE, 75 MG/KG BW 3 TIMES ADMINISTERED OVER FIRST 3 WK
  tumour outcome (control, treated, inhibition, significance): 6/14 (43%), 7/12 (58%), -35%, not significant
3,2'-DIMETHYL-4-AMINO-, 3,2'-DIMETHYL-4-AMINO-, 2% IN DIET FOR 32 WK BEGINNING 1 WK POST CARCINOGEN TREATMENT (STUDY DURATION: 36 WK), Strain/Sex: F344/MALE, Target Tissue: Type of Lesion: KIDNEY: TRANSITIONAL CELL CARCINOMA, 1500 MG/KG BW EHEN TWICE, 75 MG/KG BW 3 TIMES ADMINISTERED OVER FIRST 3 WK
  tumour outcome (control, treated, inhibition, significance): 1/14 (7%), 2/12 (17%), -143%, not significant
3,2'-DIMETHYL-4-AMINO-, 3,2'-DIMETHYL-4-AMINO-, 2% IN DIET FOR 32 WK BEGINNING 1 WK POST CARCINOGEN TREATMENT (STUDY DURATION: 36 WK), Strain/Sex: F344/MALE, Target Tissue: Type of Lesion: LARGE INTESTINE: CARCINOMA, 1500 MG/KG BW EHEN TWICE, 75 MG/KG BW 3 TIMES ADMINISTERED OVER FIRST 3 WK
  tumour outcome (control, treated, inhibition, significance): 3/14 (21%), 4/12 (33%), -57%, not significant
3,2'-DIMETHYL-4-AMINO-, 3,2'-DIMETHYL-4-AMINO-, 2% IN DIET FOR 32 WK BEGINNING 1 WK POST CARCINOGEN TREATMENT (STUDY DURATION: 36 WK), Strain/Sex: F344/MALE, Target Tissue: Type of Lesion: LIVER: HEPATOCELLULAR CARCINOMA, 15OO MG/KG BW EHEN TWICE, 75 MG/KG BW 3 TIMES ADMINISTERED OVER FIRST 3 WK
  tumour outcome (control, treated, inhibition, significance): 6/14 (43%), 1/12 (8%), 81%, not significant
3,2'-DIMETHYL-4-AMINO-, 3,2'-DIMETHYL-4-AMINO-, 2% IN DIET FOR 32 WK BEGINNING 1 WK POST CARCINOGEN TREATMENT (STUDY DURATION: 36 WK), Strain/Sex: F344/MALE, Target Tissue: Type of Lesion: LUNG: ADENOMA, 1500 MG/KG BW EHEN TWICE, 75 MG/KG BW 3 TIMES ADMINISTERED OVER FIRST 3 WK
  tumour outcome (control, treated, inhibition, significance): 7/14 (50%), 9/12 (75%), -50%, not significant
